In ChEMBL document CHEMBL1759880, “A facile, one-pot synthesis, characterization and antimicrobial activity of o-hydroxy anilide derivatives and 1-substituted-1,3-dicyclohexylurea analogs of long chain carboxylic acids” (2011):
Converted amounts (≈) assume the structure as drawn.

Experiments:
Escherichia coli [1] = test: Antibacterial activity against Escherichia coli ATCC 25922 after 24 hrs by broth dilution technique; type: functional; details: ATCC-25922, 24 h
Escherichia coli [2] = test: Antibacterial activity against Escherichia coli ATCC 25922 after 24 hrs by disc diffusion method; type: functional
Klebsiella pneumoniae [3] = test: Antibacterial activity against Klebsiella pneumoniae clinical isolate after 24 hrs by disc diffusion method; type: functional
Streptococcus pyogenes [4] = test: Antibacterial activity against Streptococcus pyogenes clinical isolate after 24 hrs by disc diffusion method; type: functional
Staphylococcus aureus [5] = test: Antibacterial activity against Staphylococcus aureus ATCC 25923 after 24 hrs by disc diffusion method; type: functional
Candida albicans [6] = test: Antifungal activity against Candida albicans after 3 to 4 days by disc diffusion method; type: functional
Aspergillus fumigatus [7] = test: Antifungal activity against Aspergillus fumigatus after 3 to 4 days by disc diffusion method; type: functional
Candida albicans [8] = test: Antifungal activity against Candida albicans after 48 hrs by broth dilution technique; type: functional
Aspergillus fumigatus [9] = test: Antifungal activity against Aspergillus fumigatus after 48 hrs by broth dilution technique; type: functional
Pseudomonas aeruginosa [10] = test: Antibacterial activity against Pseudomonas aeruginosa ATCC 27853 after 24 hrs by disc diffusion method
Pseudomonas aeruginosa [11] = test: Antibacterial activity against Pseudomonas aeruginosa ATCC 27853 after 24 hrs by broth dilution technique; details: ATCC-27853, 24 h
Staphylococcus aureus [12] = test: Antibacterial activity against Staphylococcus aureus ATCC 25923 after 24 hrs by broth dilution technique; type: functional; details: ATCC-25923, 24 h
Streptococcus pyogenes [13] = test: Antibacterial activity against Streptococcus pyogenes clinical isolate after 24 hrs by broth dilution technique; type: functional
Talaromyces marneffei [14] = test: Antifungal activity against Penicillium marneffei after 3 to 4 days by disc diffusion method; type: functional
[15] = test system: Trichophyton mentagrophytes; test: Antifungal activity against Trichophyton mentagrophytes after 3 to 4 days by disc diffusion method; type: functional
Talaromyces marneffei [16] = test: Antifungal activity against Penicillium marneffei after 48 hrs by broth dilution technique; type: functional
[17] = test system: Trichophyton mentagrophytes; test: Antifungal activity against Trichophyton mentagrophytes after 48 hrs by broth dilution technique; type: functional
Klebsiella pneumoniae [18] = test: Antibacterial activity against Klebsiella pneumoniae clinical isolate after 24 hrs by broth dilution technique; type: functional

Row | MIC (Escherichia coli [1]) [µg/mL] | MIC (Candida albicans [8]) [µg/mL] | MIC (Aspergillus fumigatus [9]) [µg/mL] | MIC (Pseudomonas aeruginosa [11]) [µg/mL] | MIC (Staphylococcus aureus [12]) [µg/mL] | MIC [17] [µg/mL] | SMILES | MBC (Escherichia coli [1]) [µg/mL] | diameter of the inhibition zone (DIZ) (Escherichia coli [2]) [mm] | diameter of the inhibition zone (DIZ) (Klebsiella pneumoniae [3]) [mm] | diameter of the inhibition zone (DIZ) (Streptococcus pyogenes [4]) [mm] | diameter of the inhibition zone (DIZ) (Staphylococcus aureus [5]) [mm] | diameter of the inhibition zone (DIZ) (Candida albicans [6]) [mm] | diameter of the inhibition zone (DIZ) (Aspergillus fumigatus [7]) [mm] | MFC (Candida albicans [8]) [µg/mL] | MFC (Aspergillus fumigatus [9]) [µg/mL] | diameter of the inhibition zone (DIZ) (Pseudomonas aeruginosa [10]) [mm] | MBC (Pseudomonas aeruginosa [11]) [µg/mL] | MBC (Staphylococcus aureus [12]) [µg/mL] | diameter of the inhibition zone (DIZ) [15] [mm] | MFC [17] [µg/mL] | other results
1 | 25 (≈ 64.2 µM) | 25 (≈ 64.2 µM) | 50 (≈ 128 µM) | 25 (≈ 64.2 µM) | 50 (≈ 128 µM) | 50 (≈ 128 µM) | CCCCCC[C@@H](O)C/C=C\CCCCCCCC(=O)Nc1ccccc1O | 100 (≈ 257 µM) | 17.7 | 14.7 | 16.1 | 15.6 | 16.2 | 12.8 | 50 (≈ 128 µM) | 100 (≈ 257 µM) | 15.2 | 100 (≈ 257 µM) | 100 (≈ 257 µM) | 10.5 | 100 (≈ 257 µM) | MBC (Streptococcus pyogenes [13]): 100 µg/mL (≈ 257 µM); MIC (Streptococcus pyogenes [13]): 50 µg/mL (≈ 128 µM); diameter of the inhibition zone (DIZ) (Talaromyces marneffei [14]): 10.1 mm; MFC (Talaromyces marneffei [16]): 100 µg/mL (≈ 257 µM); MIC (Talaromyces marneffei [16]): 50 µg/mL (≈ 128 µM)
2 | 25 (≈ 64.2 µM) | 12.5 (≈ 32.1 µM) | 25 (≈ 64.2 µM) | 25 (≈ 64.2 µM) | 25 (≈ 64.2 µM) | 25 (≈ 64.2 µM) | CCCCC/C=C\CC[C@H](O)CCCCCCCC(=O)Nc1ccccc1O | 50 (≈ 128 µM) | 20.9 | 17.8 | 19.2 | 18.7 | 21.4 | 18.3 | 25 (≈ 64.2 µM) | 50 (≈ 128 µM) | 23.4 | 25 (≈ 64.2 µM) | 50 (≈ 128 µM) | 15.2 | 50 (≈ 128 µM) | MBC (Streptococcus pyogenes [13]): 100 µg/mL (≈ 257 µM); MIC (Streptococcus pyogenes [13]): 50 µg/mL (≈ 128 µM); MBC (Klebsiella pneumoniae [18]): 50 µg/mL (≈ 128 µM); MIC (Klebsiella pneumoniae [18]): 25 µg/mL (≈ 64.2 µM); diameter of the inhibition zone (DIZ) (Talaromyces marneffei [14]): 10.7 mm; MFC (Talaromyces marneffei [16]): 100 µg/mL (≈ 257 µM); MIC (Talaromyces marneffei [16]): 25 µg/mL (≈ 64.2 µM)

Further lines, the compound ahead of its results:

Row | SMILES | MIC (Escherichia coli [1]) [µg/mL] | MIC (Candida albicans [8]) [µg/mL] | MIC (Aspergillus fumigatus [9]) [µg/mL] | MIC (Pseudomonas aeruginosa [11]) [µg/mL] | MIC (Staphylococcus aureus [12]) [µg/mL] | MIC [17] [µg/mL] | MBC (Escherichia coli [1]) [µg/mL] | diameter of the inhibition zone (DIZ) (Escherichia coli [2]) [mm] | diameter of the inhibition zone (DIZ) (Klebsiella pneumoniae [3]) [mm] | diameter of the inhibition zone (DIZ) (Streptococcus pyogenes [4]) [mm] | diameter of the inhibition zone (DIZ) (Staphylococcus aureus [5]) [mm] | diameter of the inhibition zone (DIZ) (Candida albicans [6]) [mm] | diameter of the inhibition zone (DIZ) (Aspergillus fumigatus [7]) [mm] | MFC (Candida albicans [8]) [µg/mL] | MFC (Aspergillus fumigatus [9]) [µg/mL] | diameter of the inhibition zone (DIZ) (Pseudomonas aeruginosa [10]) [mm] | MBC (Pseudomonas aeruginosa [11]) [µg/mL] | MBC (Staphylococcus aureus [12]) [µg/mL] | diameter of the inhibition zone (DIZ) [15] [mm] | MFC [17] [µg/mL] | other results
3 | CCCCCCCC/C=C\CCCCCCCC(=O)N(C(=O)NC1CCCCC1)C1CCCCC1 | 100 (≈ 205 µM) | 50 (≈ 102 µM) | 50 (≈ 102 µM) | 100 (≈ 205 µM) | – | – | 100 (≈ 205 µM) | 15.4 | 12.8 | 13.5 | 13.4 | 13.9 | 9.9 | 100 (≈ 205 µM) | 100 (≈ 205 µM) | 17.2 | 100 (≈ 205 µM) | – | – | – | –
4 | CCCCCC[C@@H](O)C/C=C\CCCCCCCC(=O)N(C(=O)NC1CCCCC1)C1CCCCC1 | 50 (≈ 99 µM) | 25 (≈ 49.5 µM) | 25 (≈ 49.5 µM) | 50 (≈ 99 µM) | 50 (≈ 99 µM) | 25 (≈ 49.5 µM) | 100 (≈ 198 µM) | 20.7 | 17.5 | 19.1 | 18.5 | 18.3 | 14.9 | 50 (≈ 99 µM) | 100 (≈ 198 µM) | 23.2 | 100 (≈ 198 µM) | 100 (≈ 198 µM) | 13.1 | 100 (≈ 198 µM) | MBC (Streptococcus pyogenes [13]): 100 µg/mL (≈ 198 µM); MIC (Streptococcus pyogenes [13]): 50 µg/mL (≈ 99 µM); MBC (Klebsiella pneumoniae [18]): 100 µg/mL (≈ 198 µM); MIC (Klebsiella pneumoniae [18]): 50 µg/mL (≈ 99 µM)
5 | CCCCC/C=C\CC[C@H](O)CCCCCCCC(=O)N(C(=O)NC1CCCCC1)C1CCCCC1 | 50 (≈ 99 µM) | 12.5 (≈ 24.8 µM) | 12.5 (≈ 24.8 µM) | 25 (≈ 49.5 µM) | 25 (≈ 49.5 µM) | 12.5 (≈ 24.8 µM) | 100 (≈ 198 µM) | 23.4 | 20.6 | 20.8 | 19.5 | 24.2 | 21.2 | 12.5 (≈ 24.8 µM) | 25 (≈ 49.5 µM) | 27.1 | 100 (≈ 198 µM) | 50 (≈ 99 µM) | 18.3 | 25 (≈ 49.5 µM) | MBC (Streptococcus pyogenes [13]): 25 µg/mL (≈ 49.5 µM); MIC (Streptococcus pyogenes [13]): 25 µg/mL (≈ 49.5 µM); MBC (Klebsiella pneumoniae [18]): 100 µg/mL (≈ 198 µM); MIC (Klebsiella pneumoniae [18]): 25 µg/mL (≈ 49.5 µM); diameter of the inhibition zone (DIZ) (Talaromyces marneffei [14]): 13.8 mm; MFC (Talaromyces marneffei [16]): 25 µg/mL (≈ 49.5 µM); MIC (Talaromyces marneffei [16]): 12.5 µg/mL (≈ 24.8 µM)
6 | O=C(O)c1cn(C2CC2)c2cc(N3CCNCC3)c(F)cc2c1=O [CIPROFLOXACIN] | – | – | – | 6.5 (≈ 19.6 µM) | – | – | – | – | – | – | 22 | – | – | – | – | 32 | – | – | – | – | –
7 | COC1=CC(=O)C[C@@H](C)[C@]12Oc1c(Cl)c(OC)cc(OC)c1C2=O [GRISEOFULVIN] | – | 6.25 (≈ 17.7 µM) | 6.25 (≈ 17.7 µM) | – | – | 6.25 (≈ 17.7 µM) | – | – | – | – | – | 30 | 27 | 12.5 (≈ 35.4 µM) | 12.5 (≈ 35.4 µM) | – | – | – | 24 | 12.5 (≈ 35.4 µM) | diameter of the inhibition zone (DIZ) (Talaromyces marneffei [14]): 20 mm; MFC (Talaromyces marneffei [16]): 12.5 µg/mL (≈ 35.4 µM); MIC (Talaromyces marneffei [16]): 6.25 µg/mL (≈ 17.7 µM)
